Source: patent US20100144755A1 (Glaxo Group Limited, priority 2006, published 2010)
Counter-ions that a name gives are not always drawn. Like-named read-outs stand apart in the source and are kept apart here.

Tests used:
[1] = tested on: TNF-stimulated IL8 production by human neutrophils; test: TNF-stimulated IL-8 production from human neutrophils; assay type: cell-based; details: Neutrophil, TNF 100 ng/ml, about 20 hrs, bounds reflect the top concentration screened, for 202(c) and 120 a range over multiple runs with ends given as 'greater than';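 note: IL-8 in cell-free supernatant quantified by sandwich ELISA, inhibition calculated against a compound-free control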
Protocol: TNF-Stimulated IL-8 Production from Human Neutrophils
The effect of test compounds on TNF-stimulated IL8 production by human neutrophils is measured as follows. Neutrophils are prepared from blood obtained from consenting donors, using standard methods. Blood is collected in heparinized syringes and layered over histopaque (30 ml/20 ml). Following centrifugation, the red cell pellet is resuspended in PBS and purified over a dextran gradient. […] Cells are added (0.5-1 ml) to 48 well plates already containing compound at 1000× final concentration in neat DMSO or 10% DMSO in RPMI1640 with 10% FBS. TNF (final concentration 100 ng/ml) is used as the stimulus. Cells incubated for approximately 20 hrs at 37° C., 5% CO2. Levels of IL-8 in the cell free supernatant are determined by sandwich ELISA, and inhibition relative to a control with DMPO but no compound is calculated.

Recombinant human p38α = molecular target: T1, Recombinant human p38α (Homo sapiens, UniProt Q16539); test: Time-resolved fluorescence resonance energy transfer (TR-FRET) kinase assay (standard and low volume); assay type: biochemical
T1 construct: His; made in house
Protocol: Time-Resolved Fluorescence Resonance Energy Transfer Linase Standard Assay
(§1) Recombinant human p38α was expressed as a His-tagged protein. To activate this protein, 3 μM unactivated p38α was incubated in 200 mM Hepes pH 7.4, 625 mM NaCl, 1 mM DTT with 27 nM active MKK6 (Upstate), 1 mM ATP and 10 mM MgCl2 The activity of the MKK6-activated p38α was assessed using a time-resolved fluorescence resonance energy transfer (TR-FRET) assay.
Biotinylated-GST-ATF2 (residues 19-96, 400 nM final), ATP ([…]) and MgCl2 (5 mM final) in assay buffer (40 mM HEPES pH 7.4, 1 mM DTT) were added to wells containing 1 ul of various concentrations of compound or DMSO vehicle (3% final) in NUNC 384 well black plate. The reaction was initiated by the addition of MKK6-activated p38 (100 pM final) to give a total volume of 30 ul. The reaction was incubated for 120 minutes at room temperature, then terminated by the addition of 15 μl of 100 mM EDTA pH 7.4. Detection reagent (15 μl) in buffer (100 mM HEPES pH 7.4, 150 mM NaCl, 0.1% w/v BSA, 1 mM DTT) containing antiphosphothreonine-ATF2-71 polyclonal antibody (Cell Signalling Technology, Beverly Mass., USA) labelled with W-1024 europium chelate (Wallac O Y, Turku, Finland), and APC-labelled streptavidin (Prozyme, San Leandro, Calif., USA) was added and the reaction was further incubated for 60 minutes at room temperature. The degree of phosphorylation of GST-ATF2 was measured using a Packard Discovery plate reader (Perkin-Elmer Life Sciences, Pangbourne, UK) as a ratio of specific 665 nm energy transfer signal to reference europium 620 nm signal.
Time-Resolved Fluorescence Resonance Energy Transfer Kinase Low Volume Assay
as §1, with “pH7.4,” for “pH 7.4,”
Biotinylated-GST-ATF2 (residues 19-96, 400 nM final), ATP (125 μM final) and MgCl2 (5 mM final) in assay buffer (40 mM HEPES pH 7.4, 1 mM DTT) were added to wells containing 0.1 μl of various concentrations of compound or DMSO vehicle (1.7% final) in Greiner low volume 384 well black plate. The reaction was initiated by the addition of MKK6-activated p38α (100 pM final) to give a total volume of 6 μl. […] The degree of phosphorylation of GST-ATF2 was measured using a BMG Rubystar plate reader (BMG, UK) as a ratio of specific 665 nm energy transfer signal to reference europium 620 nm signal.
It is noted that there are two assay formats shown above for the Time-resolved fluorescence resonance energy transfer kinase assay. […]

[2] = tested on: LPS-stimulated TNFalpha production in human whole blood; test: LPS-stimulated cytokine production in human whole blood; assay type: cell-based; details: LPS 50 ng/ml final, 4 hour incubation, read-out: IC50, LPS-stimulated TNF-alpha production in human whole blood
Protocol: LPS-Stimulated Cytokine Production in Human Whole Blood
Assay: Test compound concentrations were prepared at 10× concentrations and LPS prepared at 1 ug/ml (final conc. of 50 ng/ml LPS) and added in 50 uL volumes to 1.5 mL eppendorf tubes. Heparinized human whole blood was obtained from healthy volunteers and was dispensed into eppendorf tubes or multiwell plates containing compounds and LPS in 0.2-0.4 mL volumes and the tubes incubated at 37 C. In some studies, compound was incubated with blood for up to 30 min prior to addition of LPS. Following a 4 hour incubation, the tubes or plates were centrifuged to remove cells and plasma was withdrawn and frozen at −80 C.
Cytokine measurement: IL-Ibeta and/or TNFalpha were quantified using a standardized ELISA, or similar technology.

[3] = tested on: influx of neutrophils to the lung in LPS-challenged rats; test: Rat LPS neutrophilia model; assay type: in vivo; details: LPS aerosol, intratracheal dosing, in at least one of the range of conditions tested, significance p<0.05
How it was run: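 Compound given intratracheally (200 ul suspension or dry powder via microsprayer) to isoflurane-anesthetized rats 15 min–24 h before 15 min LPS aerosol (100 ug/ml). Lavage 4 h post-challenge; neutrophils from differential counts. % inhibition versus no-compound controls at a given concentration and pretreat time.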

[4] = for 97(b) and 115 a broad range over multiple runs, lower end less than 4.6, read-out: pIC50, TR-FRET p38α kinase assay (converted)

T1 sequence (Q16539 whole entry): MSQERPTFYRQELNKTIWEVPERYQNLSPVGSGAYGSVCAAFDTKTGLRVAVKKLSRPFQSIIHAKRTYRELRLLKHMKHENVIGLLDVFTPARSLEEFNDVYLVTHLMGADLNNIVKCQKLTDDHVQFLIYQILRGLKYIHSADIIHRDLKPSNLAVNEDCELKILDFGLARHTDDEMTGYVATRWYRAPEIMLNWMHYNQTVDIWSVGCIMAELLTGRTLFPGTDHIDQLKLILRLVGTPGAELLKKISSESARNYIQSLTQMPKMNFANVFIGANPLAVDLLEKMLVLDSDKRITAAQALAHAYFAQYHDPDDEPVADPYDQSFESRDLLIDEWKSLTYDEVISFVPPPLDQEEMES

Compound | IC50 [1] [nM] | IC50 (Recombinant human p38α; [4]) [nM] | IC50 (Recombinant human p38α; no IC50 at a concentration of less than 16 uM, read-out: IC50, TR-FRET p38α kinase assay) [nM] | IC50 [2] [nM] | inhibition of neutrophilia [3]
CCN(CC)CCCNc1nc(-c2ccc(C(=O)O)cc2)c2ccc(=O)n(-c3c(F)cccc3F)c2n1 [Example 188(a), 4-[2-{[3-(diethylamino)propyl]-amino}-8-(2,6-difluorophenyl)-7-oxo-7,8-dihydropyrido[2,3-d]pyrimidin-4-yl]benzoic acid] | > 100 | > 15800 | ≥ 16000 |  | 
Cc1ccc(C(=O)NC(C)C)cc1-c1nc(N(C)CCN(C)C)nc2c1ccc(=O)n2-c1c(F)cccc1F [Example 100, 3-{8-(2,6-difluorophenyl)-2-[[2-(dimethylamino)ethyl](methyl)amino]-7-oxo-7,8-dihydropyrido[2,3-d]pyrimidin-4-yl}-4-methyl-N-(1-methylethyl)benzamide] |  |  |  | > 1000 | 
Cc1ccc(C(=O)O)cc1-c1nc(-n2ccnc2CN)nc2c1ccc(=O)n2-c1c(F)cccc1F [Example 97(b), 3-[2-[2-(aminomethyl)-1H-imidazol-1-yl]-8-(2,6-difluorophenyl)-7-oxo-7,8-dihydropyrido[2,3-d]pyrimidin-4-yl]-4-methylbenzoic acid trifluoroacetate] |  | ≥ 39.8 |  | > 1000 | 
Cc1ccc(C(=O)Nc2ccc(F)cc2)cc1-c1nc(N(C)CCCN(C)C)nc2c1ccc(=O)n2-c1c(F)cccc1F [Example 115, 3-{8-(2,6-difluorophenyl)-2-[[3-(dimethylamino)propyl](methyl)amino]-7-oxo-7,8-dihydropyrido[2,3-d]pyrimidin-4-yl}-N-(4-fluorophenyl)-4-methylbenzamide] |  | ≥ 39.8 |  |  | statistically nonsignificant inhibition
Cc1ccc(C(=O)NCCc2ccccc2)cc1-c1nc(NC(CO)CO)nc2c1ccc(=O)n2-c1c(F)cccc1F [Example 93, 3-(8-(2,6-difluorophenyl)-2-{[2-hydroxy-1-(hydroxymethyl)ethyl]amino}-7-oxo-7,8-dihydropyrido[2,3-d]pyrimidin-4-yl)-4-methyl-N-(2-phenylethyl)benzamide trifluoroacetate] |  |  |  | > 1000 | 
